Measured values taken from patent US20060110787A1, “Use of fluorine-18-labeled fluoroquinolone antibiotics for diagnosing and monitoring bacterial infection” (The Board Trustees of the University of Arkansas, priority 2004, published 2006).

Tested on: bacterial infections (bone, wound, respiratory and other)
Assay: PET scan imaging of human subjects after intravenous injection of the 18F-labeled fluoroquinolone
Format: in vivo
Conditions: 700 to 1400 MBq i.v.; PET scan 30 to 60 minutes after injection; patients with various bacterial infections vs healthy subjects
Procedure: [^18F]ciprofloxacin administration to human subjects suspected of having bacterial infection and PET monitoring of the localization of [^18F] in the subjects. Healthy subjects are injected intravenously with 700 to 1400 MBq of [^18F]ciprofloxacin. In order to correct for the attenuation of photons by tissue, a transmission scan with two 400-MBq pin sources or from CT data (if the scan is acquired on a PET/CT scanner) is recorded after obtaining the emission scan. Thirty to sixty minutes after injection of [^18F]ciprofloxacin, data are obtained by PET scan of the regions of concern (such as the whole body or a specific area such as the hip or chest, depending on the clinical need) . Each subject is positioned supine on the imaging bed. The data on healthy subjects establish the appearance of the distribution of [^18F]ciprofloxacin in uninfected patients.
The same protocol is used on patients diagnosed by other criteria with bacterial bone infections, bacterial wound infections, bacterial respiratory infections, and other bacterial infections.
Healthy subjects and subjects confirmed by conventional diagnostic methods to have bacterial infections of various types are injected intravenously with 700 to 1400 MBq of [^18F]fleroxacin. After 30 to 60 minutes, the subjects are subjected to PET scan imaging as described in Example 1.

Compound | PET scan results of patients with bacterial infections versus healthy volunteers
O=C(O)c1cn(C2CC2)c2cc(N3CCNCC3)c(F)cc2c1=O [[^18F]ciprofloxacin] | distinguishable from the PET scan results of healthy volunteers
[^18F]fleroxacin | distinguishable from the PET scan results of healthy volunteers
